Data reported in publication PMC6100501, “Evaluation of the Antimicrobial Activity and Cytotoxicity of Different Components of Natural Origin Present in Essential Oils” (Molecules : A Journal of Synthetic Chemistry and Natural …, 2018).
Converted amounts (≈) assume the structure as drawn. Read-outs that look alike come from different tables or passages of the source.

Assays:
[1] = system: fibroblasts; settings: cited from earlier work
[2] = system: S. aureus ATCC 6538; settings: cited from earlier work
[3] = system: intestinal cells; settings: cited from earlier work
[4] = system: S. aureus ATCC 43300; settings: cited from earlier work
[5] = system: macrophages (THP1 human monocytes differentiated with PMA); experiment: Cytotoxicity, Blue Cell Viability assay; settings: 24 h
Description: (§1) Human dermal fibroblasts, human epidermal keratinocytes (HaCaT), and THP1 human monocytes were used to evaluate the cytotoxic effects of EO-based compounds.
(§2) Fibroblasts and HaCaT were routinely grown in high-glucose DMEM supplemented with 10% FBS and antibiotic-antimycotic. Monocytes were cultured in RPMI 1640 supplemented with 10% FBS, 1% HEPES, 1% nonessential amino acids, 0.1% 2-mercaptoethanol 50 mM, 1% sodium pyruvate 100 mM, and antibiotic-antimycotic. Macrophages were obtained by the in vitro differentiation of monocytes by adding 1 µM PMA to the cell culture. All cell types were grown in a humidified atmosphere at 37 °C and 5% CO2.
(§3) The cytotoxicity was determined by measuring cell metabolism through the Blue Cell Viability assay. Cells were seeded on MW96 microplates and incubated with the tested molecules (0.004–0.125 mg/mL) for 24 h. Control samples (not treated and chlorhexidine treated) were also analyzed. Then, the reagent was added (10%) and cells were incubated for 4 h at 37 °C. The reduction of the dye by metabolically active cells was monitored in a microplate reader (Multimode Synergy HT Microplate Reader; Biotek, Winooski, WI, USA) at 535/590 nm ex/em. Cell viability was determined by interpolation of the emission data obtained from the treated samples and the control samples (not treated cells, 100% viability).

[6] = system: human epidermal keratinocytes (HaCaT); experiment: Cytotoxicity, Blue Cell Viability assay; settings: 24 h; for subcytotoxic dose: keratinocytes
Description: as §1, §2, §3

[7] = system: human dermal fibroblasts; experiment: Cytotoxicity, Blue Cell Viability assay; settings: 24 h
Description: as §1, §2, §3

[8] = system: S. aureus biofilm; experiment: Inhibition of biofilm formation (CFU/mL count); assay type: cell-based, Staphylococcus aureus; settings: added to bacteria suspension, 16 h; concentration not printed in the sentence (Figure 5B)
Description: To study the effects of the compounds present in the EOs on biofilm formation, those were added to bacterial suspensions (10^7 CFU/mL) in a MW96 microplate and incubated for 16 h at 37 °C without shaking. After incubation, planktonic cells were removed by washing them twice with PBS. Biofilm samples were then sonicated as described above and serially diluted to be further plated on agar. Viable bacteria (CFU/mL) were counted after 24 h of incubation at 37 °C.

[9] = system: S. aureus; settings: cited from earlier work
[10] = system: S. aureus biofilm; experiment: Biofilm disruption: elimination of preformed biofilm (CFU/mL count); assay type: cell-based, Staphylococcus aureus; settings: 0.5 mg/mL, 24 h, vs untreated biofilm
Description: S. aureus was grown overnight in TSB until stationary growth phase was reached. At this point, bacteria were adjusted to 10^7 CFU/mL and added to a MW96 microplate and incubated at 37 °C for 16 h without shaking. After incubation, culture medium was discarded and biofilms were washed twice with PBS. In order to determine biofilm formation, Calcofluor White Stain (50 µL) was added to each well and incubated 1 min in the dark at room temperature. After incubation, the stain was removed and biofilms were washed twice with PBS. Samples were air-dried in the dark to be further visualized in an inverted fluorescence microscope (Olympus IX81). The effects of EO molecules (0.25–1 mg/mL) to prevent the formation of biofilm and to disrupt an already formed S. aureus biofilm were studied. EO compounds were added to preformed biofilms and samples were incubated for 24 h at 37 °C without shaking. After incubation, biofilms were disrupted by sonication (15 min, 200 W; Ultrasons, JP Selecta, Barcelona, Spain). Samples were then diluted and seeded onto agar plates to count the viable colonies grown after 24 h of incubation at 37 °C.

[11] = system: E. coli and S. aureus; experiment: Bactericidal mechanism by SEM, flow cytometry and confocal microscopy; assay type: cell-based, Escherichia coli, Staphylococcus aureus; settings: treated at MIC and MBC for 24 h
Description: Bacteria morphology before and after treatment with EO molecules was analyzed by SEM as we previously reported. Briefly, logarithmic growth phase E. coli and S. aureus bacteria cultures (~10^5 CFU/mL) were treated with the selected EO compounds at MIC and MBC values and incubated overnight at 37 °C. Following incubation, samples were spin-dried at 600 g and washed twice in PBS (0.1 M). Bacteria were fixed in 2.5% glutaraldehyde for 90 min and subsequently filtered and dehydrated in ethanol solutions series (30, 50, 70, 80, 90, and 100%; twice for 15 min). Finally, samples were air-dried at room temperature and covered with Pt. SEM micrographs were acquired in a SEM Inspect F50 equipment (FEI Co., LMA-INA, Zaragoza, Spain).
In order to study the bactericidal mechanism of the different molecules present in EOs, E. coli and S. aureus bacteria samples (10^7 CFU/mL) were centrifuged at 4400× g for 10 min and resuspended in the different compound solutions at MIC and MBC concentrations following the protocols previously described. Control groups (not treated and chlorhexidine treated bacteria) were also analyzed. All samples were incubated overnight at 37 °C. After propidium iodide (25 µg/mL; Sigma-Aldrich, Munich, Germany) addition, samples were analyzed by flow cytometry in Gallios equipment (Beckman Coulter Company, Cell Separation and Cytometry Unit, CIBA, IIS Aragon, Zaragoza, Spain).
The Live/Dead®BacLight™ bacterial viability kit (Molecular Probes, Fisher Scientific, Hampton, USA) was used to detect bacteria membrane damage. The methodology is based on the double-staining by SYTO9 and propidium iodide as indicated by the manufacturer. […] Samples were then mounted on slides and visualized by confocal microscopy (Leica TCS SP2 Laser Scanning Confocal Microscope, Microscopy Unit, CIBA, IIS Aragon, Zaragoza, Spain). Control samples were also tested as described above.

[12] = system: S. aureus ATCC 25923; experiment: MIC and MBC determination, broth microdilution method; assay type: cell-based; settings: Staphylococcus aureus
Description: (§4) A Gram-negative model E. coli S17 strain was used, which was kindly donated by Dr. Jose Antonio Ainsa, exerting resistance to streptomycin as it is also widely used for transformation purposes. S. aureus ATCC 25923, well-known as not a resistant strain and used in susceptibility tests, was evaluated as a Gram-positive model. Both strains were initially grown overnight in TSB at 37 °C under shaking (150 rpm) obtaining, in the stationary growth phase, 10^8–10^9 CFU/mL. TSA was used for seeding bacteria in an incubator at 37 °C (Memmert, Schwabach, Germany) in order to calculate the bacteria growth (CFU/mL) after treatment with the EO-contained molecules.
(§5) Inhibitory and bactericidal concentrations of active EO molecules were tested in two bacteria cultures, E. coli and S. aureus, following the broth microdilution method. Liquid growth medium containing an inoculum of 10^5 CFU/mL and serial concentrations of the EO compounds (0.1–4 mg/mL) were used. EO compounds were solubilized in culture medium by adding Tween® 80 (1.5–2% v/v) prior to their serial dilution. Once bacteria suspension was in stationary growth (10^8–10^9 CFU/mL), it was further diluted to ~10^5 CFU/mL and added to different concentrations ([…]) of the antimicrobial agents. Then, samples were incubated for 24 h at 37 °C under shaking (150 rpm). After incubation, bacterial suspensions were diluted in PBS and spot-plated on TSA plates to count colonies after incubation at 37 °C for 24 h. Positive control (untreated bacteria) and negative control (chlorhexidine treated bacteria) samples were also tested.

[13] = system: E. coli S17 strain; experiment: as above; assay type: cell-based; settings: Escherichia coli, S17STRAIN, 24 h, 37 °C, average of 12 replicas
Description: as §4, §5

[14] = system: tumor cell lines; settings: cited from earlier work
[15] = system: human dermal fibroblasts, keratinocytes, and macrophages; settings: 24 h
Description: as §1, §2, §3

[16] = Cytotoxicity, Blue Cell Viability assay; settings: human, human dermal fibroblasts
Description: as §1, §2, §3

[17] = ATCC25923, S. aureus, 24 h, 37 °C, average of 12 replicas, read-out: MBC
[18] = ATCC25923, S. aureus, 24 h, 37 °C, average of 12 replicas, read-out: MIC

| Compound | subcytotoxic dose [6] | bactericidal mechanism [11] | MBC [13] | MIC [13] | MBC [12, 17] | MIC [12, 18] | other results |
| --- | --- | --- | --- | --- | --- | --- | --- |
| Cc1ccc(C(C)C)cc1O [Carvacrol] | 0.030 mg/mL | membrane disruption | 400 mg/L (≈ 2.66 mM) | 200 mg/L (≈ 1.33 mM) | – | – | concentration giving 50% viability ([1]; fibroblasts): ~ 5 µg/mL; MIC ([2]; converted from 0.015% v/v): approximately 0.147 mg/mL; MIC ([2]; converted from 2.5 µL/mL): approximately 2.45 mg/mL; MIC ([2]; ref 18): 0.015 % v/v; MIC ([2]; ref 21): 2.5 µL/mL; MIC ([2]; ref 22): 0.4 mg/mL (≈ 2.66 mM); subcytotoxic concentration ([3]; intestinal cells): ~ 500 µM; MIC [4]: 310 mg/L (≈ 2.06 mM); subcytotoxic concentration ([5]; macrophages): 0.090 mg/mL; concentration toxic to fibroblasts (affects viability) ([7]; viability below 70% (ISO 10993-5)): ≥ 90 µg/mL; decrease in posterior bacterial growth, compound added before biofilm formation [8]: ~6 logs; MIC ([9]; lower end of literature range): approximately 0.15 mg/mL; MIC ([9]; upper end of literature range): 15000 mg/L (≈ 99.9 mM); reduction in bacteria growth (CFU/mL) of preformed biofilm [10]: 3 logs; MBC ([12]; ATCC25923, 24 h): 300 mg/L (≈ 2 mM); MIC ([12]; ATCC25923, 24 h): 200 mg/L (≈ 1.33 mM) |
| O=C/C=C/c1ccccc1 [Cinnamaldehyde] | – | membrane disruption | 300 mg/L (≈ 2.27 mM) | 200 mg/L (≈ 1.51 mM) | 500 mg/L (≈ 3.78 mM) | 400 mg/L (≈ 3.03 mM) | subcytotoxic concentration [14]: ~ 10 µg/mL; dose that reduces viability below 70% ([5]; human): 0.030 mg/mL; dose that reduces viability below 70% ([6]; human): 0.030 mg/mL; concentration toxic to fibroblasts (affects viability) ([7]; human): 15 µg/mL; decrease in posterior bacterial growth, compound added before biofilm formation [8]: 4 logs; reduction in bacteria growth (CFU/mL) of preformed biofilm [10]: around 2 logs |
| C=CCc1ccc(O)c(OC)c1 [Eugenol] | – | – | 500 mg/L (≈ 3.04 mM) | 400 mg/L (≈ 2.44 mM) | 1500 mg/L (≈ 9.13 mM) | 1300 mg/L (≈ 7.92 mM) | – |
| O=C(/C=C/c1ccc(O)c(O)c1)O[C@H](Cc1ccc(O)c(O)c1)C(=O)O [Rosmarinic acid] | – | – | > 4000 mg/L | > 4000 mg/L | 4000 mg/L (≈ 11.1 mM) | 2500 mg/L (≈ 6.94 mM) | – |
| CC(C)=CCC/C(C)=C/CC/C(C)=C/CC/C=C(\C)CC/C=C(\C)CCC=C(C)C [Squalene] | – | – | > 4000 mg/L | > 4000 mg/L | > 4000 mg/L | > 4000 mg/L | – |
| Cc1ccc(C(C)C)c(O)c1 [Thymol] | 0.060 mg/mL | membrane disruption | 300 mg/L (≈ 2 mM) | 200 mg/L (≈ 1.33 mM) | 300 mg/L (≈ 2 mM) | 200 mg/L (≈ 1.33 mM) | concentration giving 50% viability [1]: ~ 5 µg/mL; subcytotoxic concentration [3]: ~ 500 µM; subcytotoxic concentration ([5]; human): 0.060 mg/mL; concentration toxic to fibroblasts (affects viability) ([7]; human): ≥ 90 µg/mL |
| [H]/N=C(\N/C(=N/[H])NCCCCCCNC(=N)NC(=N)Nc1ccc(Cl)cc1)Nc1ccc(Cl)cc1 [chlorhexidine, reference compound] | lower than 0.004 mg/mL | – | – | – | – | – | subcytotoxic concentration [15]: 0.004 mg/mL; subcytotoxic concentration ([5]; human): lower than 0.004 mg/mL; viability at 24 h, 0.004 mg/mL [16]: > 70% |
| C=C1CC/C=C(\C)CC[C@@H]2[C@@H]1CC2(C)C [β-caryophyllene] | – | – | > 4000 mg/L | > 4000 mg/L | > 4000 mg/L | > 4000 mg/L | – |
